Results reported in US20220380347A1, “INHIBITORS OF CYSTEINE PROTEASES AND METHODS OF USE THEREOF” (Pardes Biosciences, Inc., priority 2020, published 2022).
Where two headings read alike, the source gives them in different places.

Tests used:
HCoV 229E = HCoV 229E cytopathic effect (CPE) assay, CellTiter Glo; assay type: cell-based, human coronavirus (HCov) 229E; conditions: protection of virus-induced CPE
Protocol: Example 238: Evaluation of antiviral activity of compounds against human coronavirus (HCov) 229E and OC43 in the cytopathic effect (CPE) assays
Compounds were assayed using standard methods against multiple coronaviral strains, including HCoV 229E and OC43 strains. The antiviral activity of compounds was calculated based on the protection of the virus-induced CPE at each concentration normalized by the virus control.
Cytopathic effect (CPE) was measured by CellTiter Glo following the manufacturer's manual. The antiviral activity of compounds was calculated based on the protection of the virus-induced CPE at each concentration normalized by the virus control.
Cell viability was measured with CellTiter Glo.

229E Mpro = 229E Mpro (Human coronavirus 229E, UniProt P0C6X1); assay: 229E Mpro enzymatic assay (standard methods, SARS-CoV2 Mpro assay given as exemplary); assay type: biochemical, human coronavirus (HCov) 229E
Chain of 229E Mpro (P0C6X1 2966-3267): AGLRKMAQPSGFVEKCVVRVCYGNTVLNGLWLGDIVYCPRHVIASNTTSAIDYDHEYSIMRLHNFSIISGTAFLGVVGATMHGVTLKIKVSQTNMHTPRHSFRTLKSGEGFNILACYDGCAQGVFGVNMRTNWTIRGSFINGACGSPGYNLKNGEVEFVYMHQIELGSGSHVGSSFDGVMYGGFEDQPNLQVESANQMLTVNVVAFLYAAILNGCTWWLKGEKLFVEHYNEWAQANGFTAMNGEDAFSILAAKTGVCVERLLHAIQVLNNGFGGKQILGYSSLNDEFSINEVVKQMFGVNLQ
In short: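 IC50 for 229E Mpro by standard methods; exemplary SARS-CoV-2 protocol used C-His6-tagged Mpro from E. coli, 25 nM enzyme, 25 μM substrate (Km 13.5 μM), in Tris-HCl pH 7.3, NaCl, EDTA, TCEP, 0.1% BSA. Inhibition normalised to no-compound and full-effect controls; four-parameter fit.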

[1] = target: COVID-19 (nCoV-2019, SARS-CoV2) Mpro (Severe acute respiratory syndrome coronavirus 2, UniProt P0DTD1); assay: COVID-19 (nCoV-2019, SARS-CoV2) Mpro enzymatic assay; assay type: biochemical; conditions: 25 nM Mpro, 25 μM substrate; read-out: COVID-19 Mpro IC50
HCov OC43 = assay: HCoV OC43 cytopathic effect (CPE) assay, CellTiter Glo; assay type: cell-based, human coronavirus (HCov) OC43
[2] = Betacoronavirus 1, OC43, read-out: OC43 IC50 (uM) MEDIAN, median

In the case of `COc1cncc(C(C(=O)NC2CCCCC2)N(C(=O)[C@H]2C[C@@H](O)CN2C#N)c2ccc(C(C)(C)C)cc2)c1` (stereo partly drawn) [Compound 992], the EC50 (HCoV 229E; unidentified human coronavirus) is reported as 2 to 10 µM.
`CC(C)(C)c1ccc(N(C(=O)[C@H]2CCCN2C#N)C(C(=O)NC2CCCCC2)c2cccnc2)cc1` (single isomer, unassigned) [Compound 1248 Isomer 1] was tested, and the EC50 (HCoV 229E; unidentified human coronavirus) was less than 2 µM.
`N#CN1C[C@H](O)C[C@@H]1C(=O)N(c1ccc(C2(C(F)(F)F)CC2)cc1)C(C(=O)NC1CCC(F)(F)CC1)c1cncc(F)c1` (single isomer, unassigned) [815 Isomer 2] gave an EC50 (HCoV 229E) of less than 2 µM.
Work on `N#CN1C[C@H](O)C[C@@H]1C(=O)N(c1ccc(C2(C(F)(F)F)CC2)cc1)C(C(=O)NC1CCC(F)(F)CC1)c1cncc(F)c1` (single isomer, unassigned) [815 Isomer 1] yielded an EC50 (HCoV 229E; unidentified human coronavirus) of less than 2 µM.
Work on `CC(C)(C)c1ccc(N(C(=O)[C@H]2CCC(C)(C)N2C#N)C(C(=O)NC2CCCCC2)c2cccnc2)cc1` (stereo partly drawn) [Compound 262, (2R)—N-(4-tert-butylphenyl)-1-cyano-N-[2-(cyclohexylamino)-2-oxo-1-(3-pyridyl)ethyl]-5,5-dimethyl-pyrrolidine-2-carboxamide] yielded an EC50 (HCoV 229E; unidentified human coronavirus) of less than 2 µM.
`CC(C)(C)c1ccc(N(C(=O)[C@H]2Cc3ccccc3CN2C#N)C(C(=O)NC2CCCCC2)c2cccnc2)cc1` (single isomer, unassigned) [Compound 374] was tested, and the EC50 (HCoV 229E; unidentified human coronavirus) was less than 2 µM.
With `CC(C)(C)c1ccc(N(C(=O)C2CCC(F)(F)CN2C#N)C(C(=O)NC2CCCCC2)c2cccnc2)cc1` (stereo not drawn) [Compound 885] the EC50 (HCoV 229E; unidentified human coronavirus) was 2 to 10 µM.
For `CO[C@@H]1C[C@H](C(=O)N(c2ccc(S(F)(F)(F)(F)F)cc2)C(C(=O)N2CCNCC2)c2cccnc2)N(C#N)C1` (stereo partly drawn) [Compound 1149], the EC50 (HCoV 229E; unidentified human coronavirus) was less than 2 µM.
`CC(C)(C)c1ccc(N(C(=O)[C@H]2COCCN2C#N)C(C(=O)NC2CCCCC2)c2cccnc2)cc1` (single isomer, unassigned) [Compound 202 Isomer 1] was tested, and the EC50 (229E Mpro; 229E Mpro EC50) was less than 2 µM, the IC50 [1] was less than 2 µM and the EC50 (HCoV 229E; unidentified human coronavirus) was less than 2 µM.
With `CC(C)(C)c1ccc(N(C(=O)[C@@]2(C)CCCN2C#N)C(C(=O)NC2CCCCC2)c2cccnc2)cc1` (single isomer, unassigned) [Compound 238 Isomer 2] the EC50 (HCoV 229E) was less than 2 µM.
`CC(C)(C)c1ccc(N(C(=O)[C@H]2C[C@@H](O)CN2C#N)C(C(=O)NC2CCCCC2)c2cccnc2)cc1` (single isomer, unassigned) [Compound 254 Isomer 1] was tested, and the EC50 (229E Mpro; read-out: 229E Mpro EC50) was less than 2 µM, the IC50 [1] was 2 to 10 µM and the EC50 (HCoV 229E) was 2 to 10 µM.
With `CC(C)(C)c1ccc(N(C(=O)[C@H]2[C@H](F)CCN2C#N)C(C(=O)NC2CCCCC2)c2cccnc2)cc1` (stereo partly drawn) [Compound 910, (2S,3R)—N-(4-tert-butylphenyl)-1-cyano-N-[2-(cyclohexylamino)-2-oxo-1-(3-pyridyl)ethyl]-3-fluoro-pyrrolidine-2-carboxamide] the EC50 (HCoV 229E; unidentified human coronavirus) was less than 2 µM.
`CC(C)(C)c1ccc(N(C(=O)C2c3ccccc3CN2C#N)C(C(=O)NC2CCCCC2)c2cccnc2)cc1` (stereo not drawn) [Compound 371] was tested, and the EC50 (HCoV 229E; unidentified human coronavirus) was less than 2 µM.
In the case of `CC(C)(C)c1ccc(N(C(=O)[C@H]2CCCN2C#N)C(C(=O)NC2CCCCC2)c2cncc(F)c2)cc1` (stereo partly drawn) [Compound 475, (2R)—N-(4-(tert-butyl)phenyl)-1-cyano-N-(2-(cyclohexylamino)-1-(5-fluoropyridin-3-yl)-2-oxoethyl)pyrrolidine-2-carboxamide], the EC50 (HCoV 229E; unidentified human coronavirus) is reported as less than 2 µM.
In the case of `CC(C)(C)c1ccc(N(C(=O)[C@H]2CCCN2C#N)C(C(=O)N2CCOCC2)c2cccnc2)cc1` (stereo partly drawn) [Compound 959], the EC50 (HCoV 229E; unidentified human coronavirus) is reported as 2 to 10 µM.
In the case of `O=C(NC1CCCCC1)C(c1cnnc2ccccc12)N(C(=O)[C@H]1C[C@@H](O)CN1)c1ccc(S(F)(F)(F)(F)F)cc1` (stereo partly drawn) [Compound 988], the EC50 (HCoV 229E; unidentified human coronavirus) is reported as less than 2 µM.
With `CC(C)(C)c1ccc(N(C(=O)[C@@]2(C)CCCN2C#N)C(C(=O)NC2CCCCC2)c2cccnc2)cc1` (single isomer, unassigned) [Compound 238 Isomer 1] the EC50 (HCoV 229E; unidentified human coronavirus) was 2 to 10 µM.
Work on `CC(C)(C)c1ccc(N(C(=O)[C@H]2CCCN2C#N)C(C(=O)NCCN2CCOCC2)c2cccnc2)cc1` (stereo partly drawn) [Compound 391, (2R)—N-(4-(tert-butyl)phenyl)-1-cyano-N-(2-((2-morpholinoethyl)amino)-2-oxo-1-(pyridin-3-yl)ethyl)pyrrolidine-2-carboxamide] yielded an EC50 (HCoV 229E; unidentified human coronavirus) of 2 to 10 µM.
With `CO[C@@H]1C[C@H](C(=O)N(c2ccc(S(F)(F)(F)(F)F)cc2)C(C)(C(=O)NC2CCC(F)(F)CC2)c2cnccn2)N(C#N)C1` (single isomer, unassigned) [1299 Isomer 1] the EC50 (229E Mpro; 229E Mpro EC50) was less than 2 µM, the IC50 [1] was 2 to 10 µM and the IC50 (HCov OC43; [2]) was 2 to 10 µM.
For `N#CN1C[C@@H](F)C[C@@H]1C(=O)N(c1ccc(S(F)(F)(F)(F)F)cc1)C(C(=O)NC1CCC(F)(F)CC1)c1cncc(F)c1` (single isomer, unassigned) [Compound 1099 Isomer 1], the EC50 (229E Mpro; 229E Mpro EC50) was less than 2 µM, the IC50 [1] was less than 2 µM and the IC50 (HCov OC43; [2]) was less than 2 µM.
Work on `C[C@H](NC(=O)C(c1cccnc1)N(C(=O)c1ccco1)c1ccc(-c2ccccc2)cc1)c1ccccc1` (single isomer, unassigned) [1353 Isomer 1] yielded an EC50 (229E Mpro; 229E Mpro EC50) of less than 2 µM, an IC50 [1] of less than 2 µM and an IC50 (HCov OC43; [2]) greater than 30 µM.
Work on `COc1ccc(NC(=O)C(c2cccnc2)N(C(=O)[C@H]2CCCN2C#N)c2ccc(C(C)(C)C)cc2)cn1` (stereo partly drawn) [Compound 407, (2R)—N-(4-(tert-butyl)phenyl)-1-cyano-N-(2-((6-methoxypyridin-3-yl)amino)-2-oxo-1-(pyridin-3-yl)ethyl)pyrrolidine-2-carboxamide] yielded an EC50 (HCoV 229E; unidentified human coronavirus) of less than 2 µM.
With `CO[C@@H]1C[C@H](C(=O)N(c2ccc(S(F)(F)(F)(F)F)cc2)C(C(=O)NC2CCC(F)(F)CC2)c2cnccc2C#N)N(C#N)C1` (stereo partly drawn) [Compound 1200, (2R,4R)-1-cyano-N-[l-(4-cyano-3-pyridyl)-2-[(4,4-difluorocyclohexyl)amino]-2-oxo-ethyl]-4-methoxy-N-[4-(pentafluoro-λ6-sulfanyl)phenyl]pyrrolidine-2-carboxamide] the EC50 (229E Mpro; 229E Mpro EC50) was less than 2 µM, the IC50 [1] was less than 2 µM and the IC50 (HCov OC43; [2]) was less than 2 µM.
In the case of `CC(C)(C)c1ccc(NC2(C#N)CCCc3ccncc32)cc1` (stereo not drawn) [Compound 690a], the EC50 (229E Mpro; 229E Mpro EC50) is reported as greater than 30 µM, the IC50 [1] is reported as greater than 30 µM and the IC50 (HCov OC43; [2]) is reported as greater than 30 µM.
`N#CN1C[C@H](O)C[C@@H]1C(=O)N(c1ccc(C2(C(F)(F)F)CC2)cc1)C(C(=O)NC1CCC(F)(F)CC1)c1cncc(F)c1` (single isomer, unassigned) [Compound 815a Isomer 1] showed an EC50 (229E Mpro; 229E Mpro EC50) of less than 2 µM, an IC50 [1] of less than 2 µM and an IC50 (HCov OC43; [2]) of less than 2 µM.
In the case of `CC(C)(C)c1ccc(N(C(=O)[C@H]2C[C@H](Oc3ccccc3)CN2C#N)C(C(=O)NC2CCCCC2)c2cccnc2)cc1` (single isomer, unassigned) [Compound 308 Isomer 1], the EC50 (229E Mpro; 229E Mpro EC50) is reported as greater than 30 µM, the IC50 [1] is reported as greater than 30 µM and the IC50 (HCov OC43; [2]) is reported as greater than 30 µM.
`C[C@H](NC(=O)C(c1cncc(F)c1)N(C(=O)[C@H]1C[C@@](C)(O)CN1C#N)c1ccc(S(F)(F)(F)(F)F)cc1)c1ccccc1` (single isomer, unassigned) [1328 Isomer 1] was tested, and the EC50 (229E Mpro; 229E Mpro EC50) was less than 2 µM, the IC50 [1] was less than 2 µM and the IC50 (HCov OC43; [2]) was less than 2 µM.
`CO[C@@H]1C[C@H](C(=O)N(c2ccc(S(F)(F)(F)(F)F)cc2)C(C(=O)NCCN2CCN(C(=O)OC(C)(C)C)CC2)c2cccnc2)N(C#N)C1` (stereo partly drawn) [Compound 1267, tert-butyl4-[2-[[2-[N-[(2R,4R)-1-cyano-4-methoxy-pyrrolidine-2-carbonyl]-4-(pentafluoro-λ^6-sulfanyl)anilino]-2-(3-pyridyl)acetyl]amino]ethyl]piperazine-1-carboxylate] showed an EC50 (229E Mpro; 229E Mpro EC50) of less than 2 µM, an IC50 [1] of 2 to 10 µM and an IC50 (HCov OC43; [2]) of less than 2 µM.
With `N#CN1C[C@H]2C[C@H]2[C@@H]1C(=O)N(c1ccc(S(F)(F)(F)(F)F)cc1)C(C(=O)NC1CCC(F)(F)CC1)c1cnccc1C(F)(F)F` (single isomer, unassigned) [Compound 1318 Isomer 1] the EC50 (229E Mpro; 229E Mpro EC50) was less than 2 µM, the IC50 [1] was less than 2 µM and the IC50 (HCov OC43; [2]) was less than 2 µM.
`N#CN1C[C@@H](OCc2ccccc2)C[C@@H]1C(=O)N(c1ccc(S(F)(F)(F)(F)F)cc1)C(C(=O)NC1CCC(F)(F)CC1)c1cncc(F)c1` (single isomer, unassigned) [1280 Isomer 1] showed an EC50 (229E Mpro; 229E Mpro EC50) of less than 2 µM, an IC50 [1] of less than 2 µM and an IC50 (HCov OC43; [2]) of less than 2 µM.
`CC(C)(C)c1ccc(N(C(=O)[C@H]2CCCN2C#N)C(C(=O)NC2CCCCC2)c2cccnc2)cc1` (single isomer, unassigned) [Compound 1248 Isomer 2] showed an EC50 (HCoV 229E) of 2 to 10 µM.
For `CO[C@@H]1C[C@H](C(=O)N(c2ccc(S(F)(F)(F)(F)F)cc2)C(C(=O)NCC2(C)COC2)c2cccnc2)N(C#N)C1` (single isomer, unassigned) [1176 Isomer 2], the EC50 (229E Mpro; read-out: 229E Mpro EC50) was less than 2 µM, the IC50 [1] was 10 to 30 µM and the IC50 (HCov OC43; read-out: OC43 IC50 (uM) MEDIAN, median) was 2 to 10 µM.
With `N#CN1C[C@@H]2C[C@@H]2[C@@H]1C(=O)N(c1ccc(S(F)(F)(F)(F)F)cc1)C(C(=O)NC1CCC(F)(F)CC1)c1cncc(F)c1` (single isomer, unassigned) [1096 Isomer 1] the EC50 (229E Mpro; 229E Mpro EC50) was less than 2 µM, the IC50 [1] was 2 to 10 µM and the IC50 (HCov OC43; [2]) was 2 to 10 µM.
Work on `CC(C)(C)c1ccc(N(C(=O)[C@H]2Cc3ccccc3CN2C#N)C(C(=O)NC2CCCCC2)c2cccnc2)cc1` (single isomer, unassigned) [Compound 374 Isomer 2] yielded an EC50 (229E Mpro; 229E Mpro EC50) of less than 2 µM, an IC50 [1] of less than 2 µM and an IC50 (HCov OC43; read-out: OC43 IC50 (uM) MEDIAN, median, listed as 374 Isomer 2) of 2 to 10 µM.
